Assay results reported in US20040072770A1, “Methods for specifically inhibiting histone deacetylase-7 and 8” (priority 2002, published 2004).

Assays:
A549 cells [1] = experiment: Growth inhibition by antisense oligos, A549; assay type: cell-based, human; conditions: 50 nM, 48 hour, vs cells treated with lipofectin
Protocol: (§1) For all ex vivo oligo treatment, human A549 human […] carcinoma cells were seeded in 10 cm tissue culture dishes one day prior to oligonucleotide treatment. The cell lines were obtained from the American Type Culture Collection (ATCC) (Manassas, Va.) and were grown under the recommended culture conditions. Before the addition of the oligonucleotides, cells were washed with PBS (phosphate buffered saline). Next, lipofectin transfection reagent (GIBCO BRL Mississauga, Ontario, Calif.), at a concentration of 6.25 μg/ ml, was added to serum free OPTIMEM medium (GIBCO BRL, Rockville, Md.), which was then added to the cells. The oligonucleotides were added directly to the cells (i.e., one oligonucleotide per plate of cells). Mismatched oligonucleotides were used as controls. The same concentration of oligonucleotide (e.g., 50 nM) was used per plate of cells for each oligonucleotide tested.
(§2) In order to determine the effect of HDAC ODNs on cell growth inhibition and cell death through apoptosis, A549, T24, DuI45, HCT116 cells (ATCC, Manassas, Va.), or HMEC cells (BioWhittaker, Walkersville, Md.) were treated with HDAC ODNs as previously described.
(§3) For the cell growth inhibition analysis, human cancer or normal cells were treated with 50 nM of paired AS or MM oligos directed against human HDAC-1, HDAC-7 or HDAC-8for up to 96 hours. Cell numbers were counted every day by trypan blue exclusion. Percentage of inhibition was calculated as (100 - AS cell numbers/control cell numbers)%.

T24 cells [2] = experiment: Growth inhibition by antisense oligos, T24; assay type: cell-based, human; conditions: 50 nM, 48 hour, vs cells treated with lipofectin
Protocol: as §1, with “tested. […]” for “tested.”
as §3

Du145 cells = experiment: Growth inhibition by antisense oligos, Du145; assay type: cell-based, human; conditions: 50 nM, 48 hour, vs cells treated with lipofectin
Protocol: as §1, §2, §3

MCF-7 cells [3] = experiment: Growth inhibition by antisense oligos, MCF-7; assay type: cell-based, human; conditions: 75 nM treatment for 2 days, vs cells treated with lipofectin
Protocol: [The procedure below names another cell line; the source lists this cell line under the same test.] as §1, with “tested. […]” for “tested.”
as §3

H446 cells = experiment: Growth inhibition by antisense oligos, H446; assay type: cell-based, human; conditions: 75 nM treatment for 2 days, vs cells treated with lipofectin
MDAmb231 cells [4] = experiment: Growth inhibition by antisense oligos, MDAmb231; assay type: cell-based, human; conditions: 50 nM, 48 hour, vs cells treated with lipofectin
Protocol: [The procedure below names another cell line; the source lists this cell line under the same test.] as §1, with “tested. […]” for “tested.”
as §3

A549 cells [5] = experiment: Apoptosis (Cell Death Detection ELISA), A549; assay type: cell-based, human; conditions: 50 nM, 48 hours, over mismatch control
Protocol: as §1, §2
(§4) For the apoptosis study, cells were analyzed using the Cell Death Detection ELISA^Plus kit (Roche Diagnostic GmBH, Mannheim, Germany) according to the manufacturer's directions. Typically, 10,000 cells were plated in 96-well tissue culture dishes for 2 hours before harvest and lysis. Each sample was analyzed in duplicate. ELISA reading was done using a MR700 plate reader (DYNEX Technology, Ashford, Middlesex, England) at 410 nm. The reference was set at 490 nm.
[…] Similarly, A549 cells were treated with 20 nM of HDAC1 AS in combination with 20 nM of each of AS inhibitors against human HDAC2 to HDAC8. After 48 hour treatment, A549 cells were harvested and analyzed for apoptosis by ELISA as described previously. Apoptosis of A549 cells by AS inhibition was compared to that of cells treated with 1 uM TSA for 16 hours. […] The control oligo UMM had no effect on induction of apoptosis.

T24 cells [6] = experiment: Apoptosis (Cell Death Detection ELISA), T24; assay type: cell-based, human; conditions: 50 nM, 48 hours, over mismatch control
Protocol: as §1, §2, §4

HCT116 cells = experiment: Apoptosis (Cell Death Detection ELISA), HCT116; assay type: cell-based, human; conditions: 50 nM, 48 hours, over mismatch control
Protocol: as §1, with “tested. […]” for “tested.”
as §4, with “Typically, 10,000 cells were plated in 96-well tissue culture dishes for 2 hours before harvest and lysis.” left out, “The reference was set at 490 nm.” left out

MCF-7 cells [7] = experiment: Apoptosis (Cell Death Detection ELISA), MCF-7; assay type: cell-based, human; conditions: 50 nM, 48 hours, over mismatch control
MDAmb231 cells [8] = experiment: Apoptosis (Cell Death Detection ELISA), MDAmb231; assay type: cell-based, human; conditions: 50 nM, 48 hours, over mismatch control
A549 cells [9] = experiment: Inhibition of agar colony formation, A549; assay type: cell-based, human; conditions: 50 nM oligos for 48 hours, vs cells treated with lipofectin
MDAmb231 cells [10] = experiment: Inhibition of agar colony formation, MDAmb231; assay type: cell-based, human; conditions: 50 nM oligos for 48 hours, vs cells treated with lipofectin
human HDAC-1 RNA = experiment: HDAC-1 RNA expression screen in T24 cells, Northern blot; assay type: cell-based; conditions: 100 nM, 24 hours
Protocol: To identify antisense oligodeoxynucleotide (ODN) capable of inhibiting HDAC-1 expression in human cancer cells, eleven phosphorothioate ODNs containing sequences complementary to the 5′ or 3′ UTR of the human HDAC-1 gene (GenBank Accession No. U50079) were initially screened in T24 cells at 100 nM. Cells were harvested after 24 hours of treatment, and HDAC-1 RNA expression was analyzed by Northern blot analysis. […] HDAC-1 MM oligo was created as a control; compared to the antisense oligo, it has a 6-base mismatch.

Question: How did the “Growth Inhibition A549” value (A549 cells [1]) turn out when “5′-GAAACGTGAGGGACTCAGCA-3′ (chemistry not given here) [HD1 AS1]” was run?
Answer: + (“+” means >35% inhibition of cell growth by antisense oligos (50 nM, 48 hour) compared to that of cells treated with lipofectin)

Question: And the “Growth Inhibition T24” value (T24 cells [2])?
Answer: + (“+” means >35% inhibition of cell growth by antisense oligos (50 nM, 48 hour) compared to that of cells treated with lipofectin)

Question: What about the “Growth Inhibition Du145” value (Du145 cells) of the same substance?
Answer: + (“+” means >35% inhibition of cell growth by antisense oligos (50 nM, 48 hour) compared to that of cells treated with lipofectin)

Question: And the “Growth Inhibition MCF-7” value (MCF-7 cells [3])?
Answer: + (“+” means >35% inhibition of cell growth by antisense oligos (50 nM, 48 hour) compared to that of cells treated with lipofectin)

Question: And the “Growth Inhibition H446” value (H446 cells)?
Answer: + (“+” means >35% inhibition of cell growth by antisense oligos (50 nM, 48 hour) compared to that of cells treated with lipofectin)

Question: What about the “Growth Inhibition MDAmb 231” value (MDAmb231 cells [4]) of the same substance?
Answer: + (“+” means >35% inhibition of cell growth by antisense oligos (50 nM, 48 hour) compared to that of cells treated with lipofectin)

Question: And the “Apoptosis A549” value (A549 cells [5])?
Answer: + (“+” means the induction of apoptosis at least 2 fold over mismatch control (50 nM, 48 hours))

Question: And the “Apoptosis T24” value (T24 cells [6])?
Answer: + (“+” means the induction of apoptosis at least 2 fold over mismatch control (50 nM, 48 hours))

Question: What about the “Apoptosis HCT 116” value (HCT116 cells) of the same substance?
Answer: + (“+” means the induction of apoptosis at least 2 fold over mismatch control (50 nM, 48 hours))

Question: What about the “Apoptosis MCF-7” value (MCF-7 cells [7]) of the same substance?
Answer: + (“+” means the induction of apoptosis at least 2 fold over mismatch control (50 nM, 48 hours))

Question: What about the “Apoptosis MDAmb 231” value (MDAmb231 cells [8]) of the same substance?
Answer: + (“+” means the induction of apoptosis at least 2 fold over mismatch control (50 nM, 48 hours))

Question: What about the “inhibition of agar colony formation A549” value (A549 cells [9]) of the same substance?
Answer: + (“+” means >35% inhibition of agar colony formation of cells treated with 50 nM oligos for 48 hours compared to that of cells treated with lipofectin)

Question: And the “inhibition of agar colony formation MDAmb 231” value (MDAmb231 cells [10])?
Answer: + (“+” means >35% inhibition of agar colony formation of cells treated with 50 nM oligos for 48 hours compared to that of cells treated with lipofectin)

Question: And the “HDAC-1 RNA expression, screen” value (human HDAC-1 RNA)?
Answer: antisense activity to human HDAC-1
